Source: patent US9834563B2 (Merck Sharp & Dohme Corp., priority 2013, dated 2017)
Structures can show the parent of a compound that is named as a salt.

Assays:
Format in all cases: cell-based
[1] = molecular target: T1, Human GPR40 (Homo sapiens, UniProt O14842); assay: Inositol phosphate turnover (IP1) assay in HEK cells stably expressing human GPR40; conditions: HEK cells stably expressing human GPR40, 3H-inositol labeling, 60 min compound incubation
Protocol: (§1) Human and mouse GPR40 stable cell-lines were generated in CHO cells stably expressing NFAT BLA (Beta-lactamase). A human GPR40 stable cell-line was generated in HEK cells stably expressing the aequorin expressing reporter. The expression plasmids were transfected using lipofectamine, LIFE TECHNOLOGIES (Carlsbad, Calif.), following manufacturer's instructions. Stable cell-lines were generated following drug selection.
(§2) The assay is performed in a 96-well format. HEK cells stably expressing human GPR40 are plated to be 60-80% confluent within 72 h. After 72 h, the plates are aspirated and the cells washed with inositol-free DMEM (ICN). The wash media is replaced with 150 μL of 3H-inositol labeling media (inositol-free media containing 0.4% human albumin or 0.4% mouse albumin, 1× pen/strep antibiotics, glutamine, 25 mM HEPES to which is added 3H-myo-inositol NEN #NET114A 1 mCi/mL, 25 Ci/mmol diluted 1:150 in loading media with a final specific radioactivity of 1 μCi/150 μL). Alternatively, the human and mouse albumin can be added after the overnight labeling step before the addition of LiCl.
The assay is typically run the next day after 18 h labeling. On the day of the assay, 5 μL of 300 mM LiCl is added to all wells and incubated at 37 degrees for 20 min. […] Beads are allowed to settle and the plates are counted in the Wallac MICROBETA instrument. […]

[2] = molecular target: T1, Human GPR40; assay: FLIPR assay: agonist-induced calcium mobilization in GPR40/CHO NFAT BLA cells; set-up: expressed in transfected cells; host or cells: CHO cells stably expressing NFAT BLA (beta-lactamase)
From the text: as §1
FLIPR (Fluorimetric Imaging Plate Reader, Molecular Devices) assays were performed to measure agonist-induced calcium mobilization of the stable clones. For the FLIPR assay, one day before assay, GPR40/CHO NFAT BLA cells were seeded into black-wall-clear-bottom 384-well plates (Costar) at 1.4×10e4 cells/20 μL medium/well. The cells were incubated with 20 μl/well of the assay buffer (HBSS, 0.1% BSA, 20 mM HEPES, 2.5 mM probenecid, pH 7.4) containing 8 μM fluo-4, AM, 0.08% pluronic acid at room temperature for 100 minutes. Fluorescence output was measured using FLIPR. Compounds were dissolved in DMSO and diluted to desired concentrations with assay buffer. 13.3 μL/well of compound solution was added. The activities of the compounds in the examples have EC50 (effective concentration of compound to afford 50% of the maximum observed fluorescence) values listed in Table I.

[3] = molecular target: T1, Human GPR40; assay: Inositol phosphate turnover (IP1) assay in HEK cells stably expressing human GPR40; set-up: expressed in transfected cells; conditions: HEK cells stably expressing human GPR40, 3H-inositol labeling, 60 min compound incubation
Protocol: as §1, §2
The assay is typically run the next day after 18 h labeling. On the day of the assay, 5 μL of 300 mM LiCl is added to all wells and incubated at 37 degrees for 20 min. 0.75 μL of 200× compounds are added and incubated with the cells for 60 min at 37 degrees. The media is then aspirated off and the assay terminated with the addition of 60 μL 10 mM formic acid. The cells are lysed for 60 min at room temperature. 15-30 μL of lysate is mixed with 70 μL/1 mg YSi SPA beads AMERSHAM (United Kingdom) in clear bottom Isoplates. The plates are shaken for 2 h at room temperature. Beads are allowed to settle and the plates are counted in the Wallac MICROBETA instrument. The activities of the compounds in the examples have EC50 (effective concentration of compound to afford 50% of the maximum observed […]) values listed in Table I.

T1 sequence (O14842 whole entry): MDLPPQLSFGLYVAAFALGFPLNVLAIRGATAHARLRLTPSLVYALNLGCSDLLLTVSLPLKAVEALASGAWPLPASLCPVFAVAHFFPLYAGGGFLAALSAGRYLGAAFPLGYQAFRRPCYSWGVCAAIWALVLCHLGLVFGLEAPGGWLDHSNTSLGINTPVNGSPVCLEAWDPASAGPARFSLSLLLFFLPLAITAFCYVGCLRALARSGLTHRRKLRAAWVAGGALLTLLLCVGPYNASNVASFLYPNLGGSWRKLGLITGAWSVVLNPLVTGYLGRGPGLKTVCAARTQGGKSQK

| Compound | EC50 [1] | EC50 [2] | EC50 [3] |
| --- | --- | --- | --- |
| CS(=O)(=O)CCCOc1ncc(-c2ccc(F)c(COc3ccc4c(c3)C[C@H]3[C@H](C(=O)O)[C@@H]43)c2)c(C(F)(F)F)n1 [Example 33] | 6.5 nM | 30.7 nM | – |
| Cc1nc(N2CCC(C#N)(c3ccccc3)CC2)nc(C)c1-c1ccc(F)c(COc2ccc3c(c2)C[C@H]2[C@H](C(=O)O)[C@@H]32)c1 [Example 44, (1S,1aS,6aR)-4-((5-(2-(4-cyano-4-phenylpiperidin-1-yl)-4,6-dimethylpyrimidin-5-yl)-2-fluorobenzyl)oxy)-1,1a,6,6a-tetrahydrocyclopropa[a]indene-1-carboxylic acid] | – | 23.2 nM | 221 nM |
| Cc1nc(N2CCC(c3ccccc3)CC2)nc(C)c1-c1ccc(F)c(COc2ccc3c(c2)C[C@H]2[C@H](C(=O)O)[C@@H]32)c1F [Example 45, (1S,1aS,6aR)-4-((3-(4,6-dimethyl-2-(4-phenylpiperidin-1-yl)pyrimidin-5-yl)-2,6-difluorobenzyl)oxy)-1,1a,6,6a-tetrahydrocyclopropa[a]indene-1-carboxylic acid] | – | 29.4 nM | 853 nM |
| Cc1nc(N2CCC(C#N)(c3ccccc3)CC2)nc(C)c1-c1ccc(F)c(COc2ccc3c(c2)C[C@H]2[C@H](C(=O)O)[C@@H]32)c1F [Example 46, (1S,1aS,6aR)-4-((3-(2-(4-cyano-4-phenylpiperidin-1-yl)-4,6-dimethylpyrimidin-5-yl)-2,6-difluorobenzyl)oxy)-1,1a,6,6a-tetrahydrocyclopropa[a]indene-1-carboxylic acid] | – | 38.7 nM | 629 nM |
| Cc1c(-c2ccc(F)c(COc3ccc4c(c3)C[C@H]3[C@H](C(=O)O)[C@@H]43)c2)ccc2nc(-c3ccncc3)sc12 [Example 52, (1S,1aS,6aR)-4-((2-fluoro-5-(7-methyl-2-(pyridin-4-yl)benzo[d]thiazol-6-yl)benzyl)oxy)-1,1a,6,6a-tetrahydrocyclopropa[a]indene-1-carboxylic acid] | – | 35.4 nM | 30 nM |
| Cc1cc(-c2ccc(F)c(COc3ccc4c(c3)C[C@H]3[C@H](C(=O)O)[C@@H]43)c2)c2c(cnn2C)n1 [Example 53, 7-(3-((((1S,1aS,6aR)-1-carboxy-1,1a,6,6a-tetrahydrocyclopropa[a]inden-4-yl)oxy)methyl)-4-fluorophenyl)-1,5-dimethyl-1H-pyrazolo[4,3-b]pyridin-4-ium formate] | – | 51.8 nM | 39 nM |
| CS(=O)(=O)CCCOc1ncc(-c2ccc(F)c(COc3ccc4c(c3)C[C@H]3[C@H](C(=O)O)[C@@H]43)c2)cc1C(F)(F)F [Example 54, (1S,1aS,6aR)-4-((2-Fluoro-5-(6-(3-(methylsulfonyl)propoxy)-5-(trifluoromethyl)pyridin-3-yl)benzyl)oxy)-1,1a,6,6a-tetrahydrocyclopropa[a]indene-1-carboxylic acid] | – | 50.7 nM | 236 nM |
| O=C(O)[C@H]1[C@@H]2Cc3cc(OCc4cc(-c5cnc(NCC6CCOCC6)cc5C(F)(F)F)ccc4F)ccc3[C@@H]21 [Example 55, (1S,1aS,6aR)-4-((2-fluoro-5-(6-(((tetrahydro-2H-pyran-4-yl)methyl)amino)-4-(trifluoromethyl)pyridin-3-yl)benzyl)oxy)-1,1a,6,6a-tetrahydrocyclopropa[a]indene-1-carboxylic acid] | – | 35.4 nM | 5.5 nM |

Continued, values first:

| EC50 [1] | EC50 [2] | EC50 [3] | Compound |
| --- | --- | --- | --- |
| – | 12.8 nM | 51 nM | Cc1nc(N2CCC(C(F)(F)F)CC2)ccc1-c1ccc(F)c(COc2ccc3c(c2)C[C@H]2[C@H](C(=O)O)[C@@H]32)c1 [Example 42, (1S,1aS,6aR)-4-((2-fluoro-5-(2-methyl-6-(4-(trifluoromethyl)piperidin-1-yl)pyridin-3-yl)benzyl)oxy)-1,1a,6,6a-tetrahydrocyclopropa[a]indene-1-carboxylic acid] |
| – | 75.5 nM | 13 nM | Cc1nc(N2CCC(C)(O)CC2)ccc1-c1ccc(F)c(COc2ccc3c(c2)C[C@H]2[C@H](C(=O)O)[C@@H]32)c1 [Example 43, (1S,1aS,6aR)-4-((2-fluoro-5-(6-(4-hydroxy-4-methylpiperidin-1-yl)-2-methylpyridin-3-yl)benzyl)oxy)-1,1a,6,6a-tetrahydrocyclopropa[a]indene-1-carboxylic acid] |
| – | 17.8 nM | 16 nM | Cc1nc(N2CCC(CNS(C)(=O)=O)C2)ccc1-c1ccc(F)c(COc2ccc3c(c2)C[C@H]2[C@H](C(=O)O)[C@@H]32)c1 (stereo partly drawn) [Example 47, (1S,1aS,6aR)-4-((2-fluoro-5-(2-methyl-6-(3-(methylsulfonamidomethyl)pyrrolidin-1-yl)pyridin-3-yl)benzyl)oxy)-1,1a,6,6a-tetrahydrocyclopropa[a]indene-1-carboxylic acid] |
| 38.5 nM | 76.7 nM | – | Cc1nc(N2CCN(S(C)(=O)=O)CC2)ccc1-c1cccc(COc2ccc3c(c2)C[C@H]2[C@H](C(=O)O)[C@@H]32)c1 [Example 48] |
| – | 28.9 nM | 19.5 nM | Cc1nc(OC2CCN(S(C)(=O)=O)CC2)ccc1-c1ccc(F)c(COc2ccc3c(c2)C[C@H]2[C@H](C(=O)O)[C@@H]32)c1 [Example 49, (1S,1aS,6aR)-4-((2-fluoro-5-(2-methyl-6-((1-(methylsulfonyl)piperidin-4-yl)oxy)pyridin-3-yl)benzyl)oxy)-1,1a,6,6a-tetrahydrocyclopropa[a]indene-1-carboxylic acid] |
| – | 58 nM | 27 nM | Cc1nc(N2CCC(CS(C)(=O)=O)CC2)ccc1-c1ccc(F)c(COc2ccc3c(c2)C[C@H]2[C@H](C(=O)O)[C@@H]32)c1 [Example 50, (1S,1aS,6aR)-4-((2-fluoro-5-(2-methyl-6-(4-((methylsulfonyl)methyl)piperidin-1-yl)pyridine-3-yl)benzyl)oxy)-1,1a,6,6a-tetrahydrocyclopropa[a]indene-1-carboxylic acid] |
| – | 23.3 nM | 26.3 nM | Cc1nc(N2CC(S(C)(=O)=O)C2)ccc1-c1ccc(F)c(COc2ccc3c(c2)C[C@H]2[C@H](C(=O)O)[C@@H]32)c1 [Example 51, (1S,1aS,6aR)-4-((2-fluoro-5-(2-methyl-6-(3-(methylsulfonyl)azetidin-1-yl)pyridin-3-yl)benzyl)oxy)-1,1a,6,6a-tetrahydrocyclopropa[a]indene-1-carboxylic acid] |
